The source of these data is ChEMBL document CHEMBL1201862, “PubChem BioAssay data set” (2004).

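Five compound concentrations were applied to cells in 96-well plates for 48 hours; endpoints were derived by simple linear interpolation of the resulting dose-response curve. Here, GI50 denotes the concentration required for 50% inhibition of growth.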 Active and inactive are the calls of the source. Rule as the data show it: active = GI50 up to about 1.1 µM and inactive = higher.

What all share (assay): NCI tumour cell line growth inhibition, 48 h
Experiment [1] relates to SF-295.
For experiment [2], the system named is SK-OV-3.
Experiment [3] deals with MCF7.
Experiment [4] concerns PC-3.
In experiment [5] the test system is LOX IMVI.
The subject of experiment [6] is DU-145.
Experiment [7] concerns K562.
The subject of experiment [8] is HCT-116.
In experiment [9] the test system is SN12C.
The test system of experiment [10] is HCT-15.
The test system of experiment [11] is KM12.
In experiment [12] the test system is CCRF-CEM.
Experiment [13] relates to HL-60.
Experiment [14] relates to NCI-H522.
For experiment [15], the system named is SNB-75.
Experiment [16] deals with MOLT-4.
For experiment [17], the system named is SK-MEL-5.
Experiment [18] relates to 786-0.
Experiment [19] relates to SNB-19.
Experiment [20] deals with A498.

Take `CCOC(=O)/C=C/CC(C)(C)COC(C)=O`: the GI50 in experiment [1] is > 10 µM (inactive); in [2] it was > 10 µM (inactive); in experiment [3], > 10 µM (inactive); in experiment [4], > 10 µM (inactive); in [5] it was 6.98 µM (inactive); in experiment [6], 7.43 µM (inactive). Further, the GI50 was 9.91 µM (inactive) in experiment [7]; 6.1 µM (inactive) in experiment [8]; > 10 µM (inactive) in experiment [9]; above 10 µM in experiment [10]; 0.811 µM (active) in experiment [11]; > 10 µM (inactive) in experiment [12]. For the same compound, the GI50 in experiment [13] was > 10 µM (inactive); in experiment [14], > 10 µM (inactive); in [15], 5.11 µM (inactive); in experiment [16] it was > 10 µM (inactive).

As for `COP(=O)(Cc1ccccc1)Cc1ccccc1`, the GI50 in experiment [1], in [2], in [3], in experiment [17], in experiment [4] and in experiment [18] was > 100 µM (inactive) each time. The GI50 in [5] was > 100 µM (inactive); in [19], > 10 µM (inactive); in experiment [6] it was > 100 µM (inactive); in experiment [7], > 100 µM (inactive); in [8], > 100 µM (inactive); in experiment [9], > 100 µM (inactive). The GI50 in experiment [10] was above 100 µM; in experiment [12], > 100 µM (inactive); in [13] it was > 100 µM (inactive); in experiment [14] it was > 100 µM (inactive); in experiment [15] it was > 100 µM (inactive); in experiment [16], > 100 µM (inactive).

In the case of `COc1ccc(N[S+]([O-])C2CCCCC2)cc1` (centres undefined), the GI50 in [1], in experiment [3], in [17], in experiment [18], in experiment [5] and in experiment [19] was > 100 µM (inactive) in each case. The GI50 is > 100 µM (inactive) in experiment [6]; > 100 µM (inactive) in experiment [7]; > 100 µM (inactive) in experiment [8]; > 100 µM (inactive) in experiment [9]; above 100 µM in experiment [10]; > 100 µM (inactive) in [11]. The GI50 in experiment [12], in [13], in experiment [14], in experiment [15] and in experiment [16] was > 100 µM (inactive) each time.

Regarding `Oc1ccc(/C=N/N=c2\[nH][nH]/c(=N\N=C\c3ccc(O)cc3O)c3ccccc23)c(O)c1`, the GI50 is 0.295 µM (active) in experiment [1]; 0.428 µM (active) in experiment [2]; 0.274 µM (active) in experiment [3]; 0.236 µM (active) in experiment [17]; 0.375 µM (active) in experiment [4]; 0.378 µM (active) in experiment [18]. Moreover, the GI50 was 0.313 µM (active) in experiment [5]; 0.473 µM (active) in experiment [19]; 0.338 µM (active) in experiment [6]; 0.261 µM (active) in experiment [7]; 0.313 µM (active) in experiment [8]; 0.308 µM (active) in experiment [9]. The GI50 in experiment [10] is 0.244 µM; in [11] it was 0.275 µM (active); in experiment [12] it was 0.345 µM (active); in [13] it was 0.271 µM (active); in experiment [16] it was 0.0865 µM (active).

In the case of `CCOC(=O)COc1cc(-c2ccccc2F)nc2cc3c(cc12)OCO3`, the GI50 in experiment [1] was > 100 µM (inactive); in experiment [2], > 100 µM (inactive); in [3], > 100 µM (inactive); in experiment [17], 71.9 µM (inactive); in [4] it was > 100 µM (inactive); in experiment [18], > 100 µM (inactive). Moreover, the GI50 was 53.7 µM (inactive) in [5]; > 100 µM (inactive) in experiment [6]; 38.1 µM (inactive) in experiment [7]; 72.3 µM (inactive) in experiment [8]; > 100 µM (inactive) in experiment [9]; 39.9 µM in experiment [10]. Besides, the GI50 in experiment [11] was > 100 µM (inactive); in experiment [12] it was 23.2 µM (inactive); in experiment [15], 59.4 µM (inactive); in experiment [16], 27.8 µM (inactive).

In the case of `O=P1(Oc2ccc(Cl)cc2Cl)Oc2cc3ccccc3cc2O1`, the GI50 is 59.3 µM (inactive) in experiment [1]; > 100 µM (inactive) in [2]; 31.8 µM (inactive) in experiment [3]; 59 µM (inactive) in [17]; 68.9 µM (inactive) in experiment [5]; > 100 µM (inactive) in experiment [19]. Further, the GI50 in experiment [20] is 29.1 µM (inactive); in experiment [7], 46.2 µM (inactive); in experiment [8] it was > 78.2 µM (inactive); in experiment [9] it was > 94.4 µM (inactive); in experiment [10] it was 50 µM; in experiment [11], 43.8 µM (inactive). In addition, the GI50 in experiment [12] is 35.5 µM (inactive); in experiment [13], 21.5 µM (inactive); in experiment [14], 26.5 µM (inactive); in experiment [15], 70.8 µM (inactive); in [16], 23.5 µM (inactive).

`CC1SC(=O)SC1C` (centres undefined): the GI50 in experiment [1], in [2], in experiment [3], in experiment [17], in [4] and in [18] was > 100 µM (inactive) throughout. The GI50 is > 100 µM (inactive) in experiment [19]; > 100 µM (inactive) in experiment [7]; > 100 µM (inactive) in experiment [8]; > 100 µM (inactive) in experiment [9]; above 100 µM in experiment [10]; > 100 µM (inactive) in [11]. In addition, the GI50 in [12], in experiment [13], in experiment [14], in experiment [15] and in experiment [16] was > 100 µM (inactive) each time.

With `NC(Cc1ccc(CP(=O)(O)O)cc1)C(=O)O` (centres undefined), the GI50 in [1], in experiment [2], in experiment [3], in experiment [17], in [4] and in [5] was > 100 µM (inactive) each time. Besides, the GI50 in experiment [19] was > 100 µM (inactive); in experiment [6] it was > 100 µM (inactive); in [7], > 100 µM (inactive); in experiment [8], > 100 µM (inactive); in experiment [9], > 100 µM (inactive); in experiment [10] it was above 100 µM. Moreover, the GI50 in experiment [11], in experiment [12], in experiment [13], in experiment [14], in experiment [15] and in experiment [16] was > 100 µM (inactive) in each case.

On to `N#CC(OC1OC(COC2OC(CO)C(O)C(O)C2O)C(O)C(O)C1O)c1ccccc1` (centres undefined), for which the GI50 in experiment [1], in [2], in experiment [3], in [17], in experiment [5] and in experiment [19] was > 225 µM (inactive) each time. Further, the GI50 in experiment [20] was > 225 µM (inactive); in experiment [7], > 225 µM (inactive); in experiment [8], > 225 µM (inactive); in experiment [9], > 225 µM (inactive); in experiment [10], above 225 µM; in experiment [11], > 225 µM (inactive). In addition, the GI50 in experiment [12], in [13], in experiment [14], in experiment [15] and in [16] was > 225 µM (inactive) in each case.

For `O=C1N/C(=N/N=C/C(O)C(O)C(O)CO)N/C1=C\c1ccco1` (centres undefined), the GI50 in experiment [1], in experiment [2], in [3], in experiment [17], in experiment [18] and in [5] was > 100 µM (inactive) throughout. The GI50 in [19] is 0.0354 µM (active); in [6] it was > 100 µM (inactive); in [20], > 100 µM (inactive); in experiment [7], > 100 µM (inactive); in experiment [8] it was > 100 µM (inactive); in [9], > 100 µM (inactive). Also, the GI50 in experiment [10] is above 100 µM; in [11] it was > 100 µM (inactive); in [12], 93.1 µM (inactive); in [13], > 100 µM (inactive); in experiment [14], > 100 µM (inactive); in experiment [15], > 100 µM (inactive). In [16], the GI50 was > 100 µM (inactive).

Take `CSCC[C@@H](NC(=O)[C@H](CC(C)C)NC(=O)C(Cc1cnc[nH]1)NC(=O)CNC(=O)[C@@H](NC(=O)[C@H](C)NC(=O)[C@H](Cc1c[nH]c2ccccc12)NC(=O)[C@H](CCC(N)=O)NC(=O)[C@@H](N)CC(N)=O)C(C)C)C(N)=O` (some centres undefined): the GI50 in experiment [1] is > 100 µM (inactive); in [2], > 100 µM (inactive); in experiment [3], > 100 µM (inactive); in experiment [17], > 100 µM (inactive); in experiment [5], 99.8 µM (inactive); in [19] it was > 100 µM (inactive). Further, the GI50 was > 100 µM (inactive) in [20]; > 100 µM (inactive) in [7]; > 100 µM (inactive) in experiment [8]; > 100 µM (inactive) in [9]; above 100 µM in [10]; > 100 µM (inactive) in experiment [11]. The GI50 in experiment [12] was > 100 µM (inactive); in [13], > 100 µM (inactive); in experiment [14], > 100 µM (inactive); in experiment [15], > 100 µM (inactive); in [16] it was > 55.7 µM (inactive).

Take `Cc1ccc(Nc2nc(NNC(=O)Cc3ccccc3)nc(NNC(=O)c3ccncc3)n2)cc1`: the GI50 in [2], in experiment [3], in experiment [17], in experiment [18], in experiment [5] and in experiment [6] was > 10 µM (inactive) each time. Besides, the GI50 in [20] is > 10 µM (inactive); in experiment [7] it was > 10 µM (inactive); in [9], > 10 µM (inactive); in [10], above 10 µM; in [11] it was > 10 µM (inactive); in [12], > 10 µM (inactive). Further, the GI50 in [13], in experiment [15] and in [16] was > 10 µM (inactive) each time.
